Experimental data as given in patent US7482379B2, “Propenoyl hydrazides” (priority 2004, dated 2009).
Peptide text beside a SMILES is read from it. * marks the point of attachment. AFC = O=c1cc(C(F)(F)F)c2ccc(N*)cc2o1

Assays:
Caspase-10 = biological target: T1, Caspase-10 (Homo sapiens, UniProt Q92851); assay: Caspase-10 progress curve inhibition assay; settings: second-order rate constant; Ac-DEVD-AMC substrate; Hepes/PEG buffer pH 7.0
T1 sequence (Q92851 220-415 limits assumed): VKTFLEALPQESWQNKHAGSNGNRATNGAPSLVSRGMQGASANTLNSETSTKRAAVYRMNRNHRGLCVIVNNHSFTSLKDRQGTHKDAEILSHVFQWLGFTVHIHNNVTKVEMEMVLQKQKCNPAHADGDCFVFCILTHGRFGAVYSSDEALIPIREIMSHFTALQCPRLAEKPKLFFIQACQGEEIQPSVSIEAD
T1 sequence (Q92851 416-521 limits assumed): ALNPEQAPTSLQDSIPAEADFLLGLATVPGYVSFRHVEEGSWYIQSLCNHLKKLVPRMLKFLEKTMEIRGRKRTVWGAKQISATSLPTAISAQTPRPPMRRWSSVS

Caspase-7 = biological target: T2, Caspase-7 (Homo sapiens, UniProt P55210); assay: Caspase-7 progress curve inhibition assay; settings: second-order rate constant; Ac-DEVD-AMC substrate; Pipes buffer pH 7.2
T2 sequence (P55210 24-198 limits assumed): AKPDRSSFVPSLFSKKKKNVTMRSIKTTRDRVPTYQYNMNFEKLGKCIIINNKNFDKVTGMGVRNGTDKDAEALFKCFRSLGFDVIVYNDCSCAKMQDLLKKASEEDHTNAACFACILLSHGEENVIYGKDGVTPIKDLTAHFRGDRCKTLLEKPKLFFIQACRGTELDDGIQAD
T2 sequence (P55210 207-303 limits assumed): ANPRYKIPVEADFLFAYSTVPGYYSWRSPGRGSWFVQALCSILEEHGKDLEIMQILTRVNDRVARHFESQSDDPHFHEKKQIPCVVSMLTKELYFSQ

Caspase-6 = biological target: T3, Caspase-6 (Homo sapiens, UniProt P55212); assay: Caspase-6 progress curve inhibition assay; settings: second-order rate constant; Ac-DEVD-AMC substrate; Pipes buffer pH 7.2
T3 sequence (P55212 24-179 limits assumed): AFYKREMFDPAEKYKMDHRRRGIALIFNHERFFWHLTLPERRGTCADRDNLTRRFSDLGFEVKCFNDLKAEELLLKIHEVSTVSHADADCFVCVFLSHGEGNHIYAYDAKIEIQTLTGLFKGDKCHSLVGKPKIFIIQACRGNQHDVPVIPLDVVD
T3 sequence (P55212 194-293 limits assumed): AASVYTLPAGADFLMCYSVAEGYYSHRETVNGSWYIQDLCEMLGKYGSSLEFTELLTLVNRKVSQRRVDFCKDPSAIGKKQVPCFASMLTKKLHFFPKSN

Caspase-2 = biological target: T4, Caspase-2 (Homo sapiens, UniProt P42575); assay: Caspase-2 progress curve inhibition assay; settings: second-order rate constant; Cbz-VDVAD-AFC substrate; Pipes buffer pH 7.2
T4 sequence (P42575 170-333 limits assumed): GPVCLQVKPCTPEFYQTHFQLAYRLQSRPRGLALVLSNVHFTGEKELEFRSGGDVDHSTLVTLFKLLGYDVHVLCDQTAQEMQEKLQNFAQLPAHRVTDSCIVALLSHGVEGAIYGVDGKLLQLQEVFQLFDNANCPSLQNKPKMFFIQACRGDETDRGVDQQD
T4 sequence (P42575 348-452 limits assumed): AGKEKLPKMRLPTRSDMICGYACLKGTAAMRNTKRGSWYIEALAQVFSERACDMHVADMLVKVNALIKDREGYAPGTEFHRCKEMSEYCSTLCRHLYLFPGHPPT

Caspase-8 = Caspase-8 (Homo sapiens, UniProt Q14790); assay: Caspase-8 progress curve inhibition assay; settings: second-order rate constant; Ac-DEVD-AMC substrate; Pipes buffer pH 7.2
Caspase-3 = biological target: T5, Caspase-3 (Homo sapiens, UniProt P42574); assay: Caspase-3 progress curve inhibition assay; settings: for k2 Caspase-3: second-order rate constant, Ac-DEVD-AMC substrate, Pipes buffer pH 7.2
T5 sequence (P42574 29-175 limits assumed): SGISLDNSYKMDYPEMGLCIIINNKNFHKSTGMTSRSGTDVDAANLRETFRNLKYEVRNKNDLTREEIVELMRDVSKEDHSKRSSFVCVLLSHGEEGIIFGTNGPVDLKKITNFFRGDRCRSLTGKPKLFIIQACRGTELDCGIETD
T5 sequence (P42574 176-277 limits assumed): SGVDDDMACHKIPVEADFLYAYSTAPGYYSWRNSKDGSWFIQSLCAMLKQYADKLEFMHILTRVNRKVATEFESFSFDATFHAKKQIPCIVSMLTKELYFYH

Caspase-9 = biological target: T6, Caspase-9 (Homo sapiens, UniProt P55211); assay: Caspase-9 progress curve inhibition assay; settings: for k2 Caspase-9: second-order rate constant, Ac-LEHD-AFC substrate, Hepes buffer pH 7.0 with 0.7 M sodium citrate
T6 sequence (P55211 1-315 limits assumed): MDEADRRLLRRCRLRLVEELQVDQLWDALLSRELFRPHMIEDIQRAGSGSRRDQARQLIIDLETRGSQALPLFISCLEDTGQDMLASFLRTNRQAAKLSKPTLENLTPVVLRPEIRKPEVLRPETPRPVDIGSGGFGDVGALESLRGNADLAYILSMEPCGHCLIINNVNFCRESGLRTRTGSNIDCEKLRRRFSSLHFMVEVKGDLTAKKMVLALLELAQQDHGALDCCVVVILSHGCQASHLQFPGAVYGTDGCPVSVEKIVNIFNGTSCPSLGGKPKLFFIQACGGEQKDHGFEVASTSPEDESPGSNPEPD
T6 sequence (P55211 331-416 limits assumed): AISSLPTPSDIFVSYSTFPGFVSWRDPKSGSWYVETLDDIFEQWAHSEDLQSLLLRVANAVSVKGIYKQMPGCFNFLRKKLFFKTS

Sequence of Caspase-8 (Q14790 217-374 limits assumed): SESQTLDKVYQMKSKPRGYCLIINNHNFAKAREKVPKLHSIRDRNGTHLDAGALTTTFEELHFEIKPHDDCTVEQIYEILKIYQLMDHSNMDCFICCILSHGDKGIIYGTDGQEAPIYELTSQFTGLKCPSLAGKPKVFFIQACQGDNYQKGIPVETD
Sequence of Caspase-8 (Q14790 385-479 limits assumed): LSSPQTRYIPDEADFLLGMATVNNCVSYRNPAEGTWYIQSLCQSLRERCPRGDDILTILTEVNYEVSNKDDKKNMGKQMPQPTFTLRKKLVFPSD

| Structure (SMILES) | k2 Caspase-7 (Caspase-7) | k2 Caspase-6 (Caspase-6) | k2 Caspase-3 (Caspase-3) | Km (Caspase-9; read-out: KM with caspase-9, substrate Ac-LEHD-AFC) [µM] | k2 Caspase-10 (Caspase-10) | k2 Caspase-2 (Caspase-2) [M⁻¹ s⁻¹] | k2 Caspase-8 (Caspase-8) | k2 Caspase-9 (Caspase-9) | selectivity: inhibits caspase-3 more potently than caspase-6 (Caspase-3; ratio of k2 caspase-3 to caspase-6) [fold] | selectivity: inhibits caspase-3 more potently than caspase-8 (Caspase-3; ratio of k2 caspase-3 to caspase-8) [fold] | k2 Caspase-3 (Caspase-3; listed as Cbz-Asp-Glu-Val-AAsp-CH═CH—CON(Bzl)2) |
| --- | --- | --- | --- | --- | --- | --- | --- | --- | --- | --- | --- |
| CC(C)[C@H](NC(=O)[C@H](CCC(=O)O)NC(=O)[C@H](CC(=O)O)NC(=O)OCc1ccccc1)C(=O)NN(CC(=O)O)C(=O)/C=C/C(=O)N(Cc1ccccc1)Cc1ccccc1 (relative stereo) [Cbz-Asp-Glu-Val-AAsp-CH═CH—CON(CH2Ph)2, N^2—(N-Benzyloxycarbonylaspartylglutamylvalyl)-N^1-carboxymethyl-N^1-trans-(3-dibenzylcarbamoylpropenoyl)hydrazine] | 359,000 M^−1s^−1 | 5,100 M^−1s^−1 | – | – | 6,300 M^−1s^−1 | 110 | 8,600 M^−1s^−1 | 450 M⁻¹ s⁻¹ | 588 | 348 | 3,000,000 M^−1s^−1 |
| CC(C)[C@H](NC(=O)[C@H](CCC(=O)O)NC(=O)[C@H](CC(=O)O)NC(=O)OCc1ccccc1)C(=O)NN(CC(=O)O)C(=O)/C=C/C(=O)NCCc1ccccc1 (relative stereo) [Cbz-Asp-Glu-Val-AAsp-CH═CH—CONHCH2CH2Ph, N^2—(N-Benzyloxycarbonylaspartylglutamylvalyl)-N^1-carboxymethyl-N^1-trans-(3-phenethylcarbamoylpropenoyl)hydrazine] | 267,000 M^−1s^−1 | 3,470 M^−1s^−1 | 1,950,000 M^−1s^−1 | – | 31,400 M^−1s^−1 | 120 | 129,000 M^−1s^−1 | 655 M⁻¹ s⁻¹ | – | – | – |
| CC[C@H](C)[C@H](NC(=O)OCc1ccccc1)C(=O)N[C@@H](CCC(=O)O)C(=O)N[C@H](C(=O)NN(CC(=O)O)C(=O)/C=C/C(=O)N(C)CCc1ccccc1)[C@@H](C)O (relative stereo) [N^2—(N-Benzyloxycarbonylisoleucylglutamylthreonyl)-N^1-carboxylmethyl-N^1-trans-(3-methylphenylethylcarbamoylpropenoyl)hydrazine] | 1,020 M^−1s^−1 | – | 5,480 M^−1s^−1 | – | 8,770 M^−1s^−1 | 38 | 60,500 M^−1s^−1 | 760 M⁻¹ s⁻¹ | – | – | – |
| CC(C)[C@H](NC(=O)OCc1ccccc1)C(=O)NN(CC(=O)O)C(=O)/C=C/c1ccc(Cl)cc1 (stereo in doubt) [Cbz-Val-AAsp-CH═CH-4-Cl—Ph, N^2—(N-Benzyloxycarbonylvalyl)-N^1-carboxymethyl-N^1-trans-(3-(4-chlorophenyl)propenoyl)hydrazine] | – | – | – | – | – | – | – | 19 M⁻¹ s⁻¹ | – | – | – |
| CCOC(=O)/C=C/C(=O)N(CC(=O)O)NC(=O)[C@@H](NC(=O)OCc1ccccc1)C(C)C (stereo in doubt) [Cbz-Val-AAsp-CH═CH—COOEt, N^2—(N-Benzyloxycarbonylvalyl)-N^1-carboxymethyl-N^1-trans-(3-ethoxycarbonylpropenoyl)hydrazine] | 2,680 M^−1s^−1 | – | 8,000 M^−1s^−1 | – | 389 M⁻¹ s⁻¹ | – | – | 5,240 M^−1s^−1 | – | – | – |
| CC(C)[C@H](NC(=O)OCc1ccccc1)C(=O)NN(CC(=O)O)C(=O)/C=C\Cl (stereo in doubt) [Cbz-Val-AAsp-CH═CH—Cl, N^2—(N-Benzyloxycarbonylvalyl)-N^1-carboxymethyl-N^1-cis-(3-chloropropenoyl)hydrazine] | – | – | – | – | – | – | – | 15 M⁻¹ s⁻¹ | – | – | – |

Continued, in another order:

| k2 Caspase-7 (Caspase-7) | k2 Caspase-6 (Caspase-6) | k2 Caspase-3 (Caspase-3) | Km (Caspase-9; read-out: KM with caspase-9, substrate Ac-LEHD-AFC) [µM] | Structure (SMILES) | k2 Caspase-10 (Caspase-10) | k2 Caspase-2 (Caspase-2) [M⁻¹ s⁻¹] | k2 Caspase-8 (Caspase-8) | k2 Caspase-9 (Caspase-9) | selectivity: inhibits caspase-3 more potently than caspase-6 (Caspase-3; ratio of k2 caspase-3 to caspase-6) [fold] | selectivity: inhibits caspase-3 more potently than caspase-8 (Caspase-3; ratio of k2 caspase-3 to caspase-8) [fold] | k2 Caspase-3 (Caspase-3; listed as Cbz-Asp-Glu-Val-AAsp-CH═CH—CON(Bzl)2) |
| --- | --- | --- | --- | --- | --- | --- | --- | --- | --- | --- | --- |
| 875,000 M^−1s^−1 | 29,700 M^−1s^−1 | 5,620,000 M^−1s^−1 | – | CC(C)[C@H](NC(=O)[C@H](CCC(=O)O)NC(=O)[C@H](CC(=O)O)NC(=O)OCc1ccccc1)C(=O)NN(CC(=O)O)C(=O)C=CC(=O)N(Cc1cccc2ccccc12)Cc1cccc2ccccc12 | 32,500 M^−1s^−1 | 410 | 9,460 M^−1s^−1 | 150 M⁻¹ s⁻¹ | – | – | – |
| 275,000 M^−1s^−1 | 9,500 M^−1s^−1 | 2,640,000 M^−1s^−1 | – | CC(C)[C@H](NC(=O)[C@H](CCC(=O)O)NC(=O)[C@H](CC(=O)O)NC(=O)OCc1ccccc1)C(=O)NN(CC(=O)O)C(=O)/C=C/C(=O)N(C)Cc1ccccc1 (relative stereo) [Cbz-Asp-Glu-Val-AAsp-CH═CH—CON(CH3)CH2Ph, N^1-trans-(3-Benzylmethylcarbamoylpropenoyl)-N^2—(N-benzyloxycarbonylaspartylglutamylvalyl)-N^1-carboxymethylhydrazine] | 29,400 M^−1s^−1 | 660 | 90,300 M^−1s^−1 | 820 M⁻¹ s⁻¹ | – | – | – |
| 249,000 M^−1s^−1 | 3,210 M^−1s^−1 | 1,750,000 M^−1s^−1 | – | CC(C)[C@H](NC(=O)[C@H](CCC(=O)O)NC(=O)[C@H](CC(=O)O)NC(=O)OCc1ccccc1)C(=O)NN(CC(=O)O)C(=O)/C=C/C(=O)NCc1ccccc1 (relative stereo) [Cbz-Asp-Glu-Val-AAsp-CH═CH—CONHCH2Ph, N^1-trans-(3-Benzylcarbamoylpropenoyl)-N^2—(N-benzyloxycarbonylaspartylglutamylvalyl)-N^1-carboxymethylhydrazine] | 19,400 M^−1s^−1 | 130 | 78,235 M^−1s^−1 | 2,010 M^−1s^−1 | – | – | – |
| 55 M⁻¹ s⁻¹ | – | 184 M⁻¹ s⁻¹ | – | CCCCNC(=O)/C=C/C(=O)N(CC(=O)O)NC(=O)[C@@H](NC(=O)OCc1ccccc1)C(C)C (stereo in doubt) [Cbz-Val-AAsp-CH═CH—CONH-nBu, N^2—(N-Benzyloxycarbonylvalyl)-N^1-trans-(3-butylcarbamoylpropenoyl)-N^1-carboxymethylhydrazine] | – | – | – | 32 M⁻¹ s⁻¹ | – | – | – |
| 60 M⁻¹ s⁻¹ | – | 185 M⁻¹ s⁻¹ | – | CC(C)[C@H](NC(=O)OCc1ccccc1)C(=O)NN(CC(=O)O)C(=O)/C=C/C(=O)NCc1ccccc1 (stereo in doubt) [Cbz-Val-AAsp-CH═CH—CONHCH2Ph, N^1-trans-(3-Benzylcarbamoylpropenoyl)-N^2—(N-benzyloxycarbonylvalyl)-N^1-carboxymethylhydrazine] | – | – | – | 20 M⁻¹ s⁻¹ | – | – | – |
| – | – | – | 114 | CC(=O)N[C@@H](CC(C)C)C(=O)N[C@@H](CCC(=O)O)C(=O)N[C@@H](Cc1cnc[nH]1)C(=O)N[C@@H](CC(=O)O)C(=O)Nc1ccc2c(C(F)(F)F)cc(=O)oc2c1 [Ac-LEHD-AFC, reference compound] (Ac-LEHD-{AFC}) | – | – | – | – | – | – | – |
